Laboratory results published in patent publication US20250136669A1, “VHH ANTIBODY” (TEIKYO HEISEI UNIVERSITY, priority 2021, published 2025).

Experiments:
Pseudomonas aeruginosa = conditions: fraction of MIC, Non Patent Literatures 4 and 5; cited from earlier work
[1] = test system: Staphylococcus aureus ATCC25923; assay: Colistin MIC with antibody, Staphylococcus aureus; assay type: cell-based; conditions: same in absence and presence of 10 μg/mL 4P41 LZ trimer
Procedure: The minimum growth inhibitory concentration (MIC) of an antimicrobial agent was measured by a microbroth dilution method in accordance with the Clinical Laboratory Standards Institute (CLSI) guideline. The serially diluted antimicrobial agent was added to a 96-well round bottom microtiter plate (Watson Co., Ltd.) at 100 μL/well, and each bacterial strain was inoculated at 5×10^5 CFU/mL/well. As the antimicrobial agent, Aztreonam (Sigma-Aldrich), Amikacin (Sigma-Aldrich), Arbekacin (Meiji Seika Pharma Co., Ltd.), Ofloxacin (Sigma-Aldrich), colistin (Sigma-Aldrich), and Polymyxin B (Sigma-Aldrich) were used. Synergistic effect of an antibody and an antimicrobial agent was evaluated using a checkerboard dilution method. Each of the antimicrobial agents was serially two-fold diluted in the vertical direction in a 96-well round bottom titer plate to concentrations between 0.125 to 2 times the MIC. Subsequently, an antibody was serially two-fold diluted in the horizontal direction of the plate in a range of 0 to 10 μg/mL or 0 to 20 μg/mL. Each bacterial strain was inoculated at 5×10^5 CFU/mL/well.
A multidrug-resistant Pseudomonas aeruginosa NCGM2.S1 and drug-susceptible Pseudomonas aeruginosa PAO1 and OCR1 were cultured using Luria Bertani (LB) medium (BD) or an LB plate containing 15 g/L of agar at 37° C. […]

[2] = test system: multidrug-resistant Pseudomonas aeruginosa NCGM2.S1; assay: Silkworm Pseudomonas aeruginosa infection model; assay type: in vivo; conditions: colistin alone administration group, probit analysis
Procedure: A: Overnight culture solution of NCGM2.S1 was diluted by 100 times and cultured for 16 hours and was then injected into hemolymph of silkworms on the 2nd day of the 5th instar, and 0.05 mL of colistin was then injected into the blood. The survival rates were measured over 96 hours. […] The survival rates were measured over 96 hours. […] The survival rates were measured over 96 hours.
Overnight culture solution of multidrug-resistant Pseudomonas aeruginosa NCGM2.S1 was diluted 100 times and was further cultured overnight. The bacterial culture solution was diluted with physiological saline (Otsuka Pharmaceutical Co., Ltd.), and 0.05 mL thereof was injected into hemolymph from the dorsal surface using a 1-mL injection syringe (Terumo Corporation) and 27-gauge syringe needle (Terumo Corporation), and the silkworm larvae were fed at 27° C. The median lethal dose was measured from the survival rate after 24 hours, and 0.05 mL of the bacteria in an amount 4 times the median lethal dose was injected to make a silkworm Pseudomonas aeruginosa infection model.

[3] = test system: ovalbumin-loop 1 peptide (loop 1 of OprM); assay: ELISA binding of VHH monomer to loop 1 antigen; design: species or system Pseudomonas aeruginosa; conditions: purified monomer protein
Procedure: In the anti-loop 1 VHH antibody, 0.1 M NaHCO3 (Blank), 0.1 M NaHCO3 containing […] of thyroglobulin, 0.1 M NaHCO3 containing 10 μg/mL of thyroglobulin-loop 1 peptide, or 0.1 M NaHCO3 containing 10 μg/mL of ovalbumin-loop 1 peptide was added to a 96-well immuno plate (Nunc) at 40 μL/well and was left to stand at 4° C. overnight.
In the anti-loop 2 VHH antibody, 0.1 M NaHCO3 (Blank), 0.1 M NaHCO3 containing […] of KLH-loop 2 peptide was added to a 96-well immuno plate (Nunc) at 40 μL/well and was left to stand at 4° C. overnight. SuperBlock-PBS (Thermo Fisher Scientific) was added to the plate at 350 μL/well and left to stand at room temperature for 1 hour. After washing with 400 μL/well of PBS-T (phosphate buffer saline containing 0.05% Tween 20), 40 µL/well of SuperBlock-TBS containing 0.2 μg/mL of the VHH antibody was added thereto, followed by reaction at room temperature for 1 hour. The wells were washed with 400 μL/well of PBS-T again three times, and 40 μL/well of anti-Myc mouse monoclonal antibody 9E10 (Santa Cruz Biotechnology Inc.) diluted 500 times with SuperBlock-TBS was added thereto, followed by reaction at room temperature for 1 hour. […] Subsequently, absorbance at 450 nm was measured, and the average and standard deviation were calculated of triplicate or quadruplicate measurement.

[4] = test system: multidrug-resistant Pseudomonas aeruginosa strain NCGM2.S1; assay: Drug susceptibility test (MIC, microbroth dilution, CLSI) with antibody added; assay type: cell-based; conditions: NCGM2.S1, antibody 10 μg/mL, FIG. 14B
Procedure: B: MIC of colistin in the presence of an antibody. The MIC of colistin in the presence of each antibody in NCGM2.S1 was measured by a microbroth dilution method in accordance with the CLSI guideline. […] As the negative control, a 4P6 trimer which is a human TRAIL-R1 VHH trimer was used.
The minimum growth inhibitory concentration (MIC) of an antimicrobial agent was measured by a microbroth dilution method in accordance with the Clinical Laboratory Standards Institute (CLSI) guideline. The serially diluted antimicrobial agent was added to a 96-well round bottom microtiter plate (Watson Co., Ltd.) at 100 μL/well, and each bacterial strain was inoculated at 5×10^5 CFU/mL/well. As the antimicrobial agent, Aztreonam (Sigma-Aldrich), Amikacin (Sigma-Aldrich), Arbekacin (Meiji Seika Pharma Co., Ltd.), Ofloxacin (Sigma-Aldrich), colistin (Sigma-Aldrich), and Polymyxin B (Sigma-Aldrich) were used. Synergistic effect of an antibody and an antimicrobial agent was evaluated using a checkerboard dilution method. Each of the antimicrobial agents was serially two-fold diluted in the vertical direction in a 96-well round bottom titer plate to concentrations between 0.125 to 2 times the MIC. Subsequently, an antibody was serially two-fold diluted in the horizontal direction of the plate in a range of 0 to 10 μg/mL or 0 to 20 μg/mL. Each bacterial strain was inoculated at 5×10^5 CFU/mL/well. […]

c1ccc2c(c1)Nc1ccccc1S2 [phenothiazine]
decrease of the MIC value of an antimicrobial agent in Pseudomonas aeruginosa (Pseudomonas aeruginosa): ⅛

colistin
MIC of colistin in Staphylococcus aureus [1]: > 128 µg/mL
therapeutically effective dose ED50 of colistin [2]: 124 μg/g body weight

c1ccc2c(CN3CCNCC3)cccc2c1 [NMP, 1-(1-naphthylmethyl)-piperazine]
decrease of the MIC value of an antimicrobial agent in Pseudomonas aeruginosa (Pseudomonas aeruginosa): ⅛

B1: 4P94 monomer: anti-loop 1 VHH antibody from alpaca, monomer with cMyc-Tag and His-Tag (protein)
VHH: EVQLVESGGGLVQAGNSLKLSCVVSGRTLRNYAMGWFRQAPLKEREFVAAIGWTTGTASYGTPTYSDSVKGRFTISRDNAGNTLYLLMNNLKPEDTAVYYCAAGLIGYFGDRISSASVYDGWGQGTQVTVSS
modifications: left off: small tags and cut ends
notes: anti-loop 1 VHH antibody from alpaca, monomer with cMyc-Tag and His-Tag
binding to ovalbumin-loop 1 peptide [3]: specifically bound
change in MIC of colistin, antibody added at 10 μg/mL [4]: ¼
